Measured values from patent US9945862B2, “Biomarkers for predicting and assessing responsiveness of thyroid and kidney cancer subjects to lenvatinib compounds” (Eisai R&D Management Co., Ltd., priority 2011, dated 2018).

Test system: cytokine, chemokine and angiogenic factors (blood biomarkers)
Assay: Serum blood biomarkers (cytokine, chemokine and angiogenic factors) by ELISA and multiplex kits, pre- and post-treatment with E7080
Type: in vivo, human
Method: Patients received E7080 at a dose of 24 mg oral once daily in 28 day cycles. […] 7.5 mL of blood was drawn into serum […] tube (SST) and let to clot at room temperature for at least 30 min. Within 60 minutes of sample collection, the tubes were centrifuged for 10 minutes at 20-25° C. at 1400×g. The supernatant was drawn without disturbing the pellet and the serum was mixed and divided into two sample tubes and stored frozen (−70° C.) at an upright position until further treatment for analysis. Serum samples from 58 patients were used for blood biomarker analysis. […] The association of progression free survival with or without a covariate was analyzed. The covariates used are the following PK parameters: cycle 1 day 1 Cmax (E7080 concentration 2 hr after dosing on cycle 1 day 1: MAX1); cycle 1 day 1 Ctrough (E7080 concentration before dosing on cycle1 day 8: MIN1); cycle 2 day 1 Cmax (E7080 concentration 2 hrs after dosing on cycle 2 day 1: MAX2); cycle 2 day 1 Ctrough (E7080 concentration before dosing on cycle 2 day 1: MIN2). Serum samples were tested in batch format where all timepoints from the same subject were assayed on the same day. On the day of assay, samples were removed from −80° C. and allowed to thaw and reach room temperature. The serum samples were tested using the following commercial assay kits as per the manufacturer's instructions: Human Soluble Tie-2 ELISA (R&D Systems Cat. No. DTE200), Human Angiopoietin-1 ELISA (R&D Systems Cat. No. DANG10), Human FGF23 ELISA, Human SDF-1a ELISA. Human Angiopoietin-2 ELISA (R&D Systems Cat. No. DANG20), Human Soluble Receptor Multiplex (Millipore Cat. No. HSCR-32K; sVEGF R1, sVEGF R2 and sVEGF R3 only), Human Cytokine/Chemokine Panel I Multiplex (Millipore Cat. No. MPXHCYTO-60K; IL-1α, IL-1β, IL-1ra, IL-2, IL-4, IL-5, IL-6, IL-7, IL-8, IL-10, IL-12p40, IL-12p70, IL-13, IL-15, IL-17, sCD40L, EGF, Eotaxin, FGF-2, G-CSF, GM-CSF, IFN-γ, IP-10, MCP-1, MIP-1α, MIP-1β, PDGF-AA, RANTES, TGF-α, TNF-α and VEGF only) and Human Growth Factor Multiplex (Origene TruPLEX Cat. No. AM100096; PDGF-AB, PDGF-BB, FGF4, VEGFD, FGF2, EGF, HGF, FLT3LG, ANGPT2, PGF and VEGFA).
The ELISA plates were measured using a Molecular Devices UVmax kinetic microplate reader with SoftMax Pro 5.2 software. The multiplex assays were performed using the Bio-Rad Bio-Plex system with Bio-Plex Manager 4.1 software. Final protein concentrations (pg/mL) were calculated from the standard curve for each assay. Depending on the assay, serum samples may have been diluted in assay buffer prior to testing. In these cases, protein concentrations were multiplied by the dilution factor.
From 58 patient samples, between 27 and 49 pre- and post-treatment blood samples were used for analyses.

COc1cc2nccc(Oc3ccc(NC(=O)NC4CC4)c(Cl)c3)c2cc1C(N)=O [E7080, 4-(3-chloro-4-(cyclopropylaminocarbonyl)aminophenoxy)-7-methoxy-6-quinolinecarboxamide]
ANG2 (90) concentration (Median), PR group (CYCLE 1 DAY 1 (pre-treatment)): 829.5 pg/mL
ANG2 (90) concentration (Median), others (SD or PD) (CYCLE 1 DAY 1 (pre-treatment)): 1032.9 pg/mL
Ang-2 concentration (Median), PR group (CYCLE 1 DAY 1 (pre-treatment)): 2530.5 pg/mL
Ang-2 concentration (Median), others (SD or PD) (CYCLE 1 DAY 1 (pre-treatment)): 3399 pg/mL
IFN-g concentration (Median), PR group (CYCLE 1 DAY 1 (pre-treatment)): 7.9 pg/mL
IFN-g concentration (Median), others (SD or PD) (CYCLE 1 DAY 1 (pre-treatment)): 21.2 pg/mL
ANG2 (90) concentration (Median), PR group (CYCLE 1 DAY 8): 591.7 pg/mL
ANG2 (90) concentration (Median), others (SD or PD) (CYCLE 1 DAY 8): 799.3 pg/mL
ANG2 (90) serum level post treatment (median) (CYCLE 1 DAY 8): 688.6 pg/mL
Ang-2 serum level post treatment (median) (CYCLE 1 DAY 8): 1812 pg/mL
Eotaxin serum level post treatment (median) (CYCLE 1 DAY 8): 154.7 pg/mL
FLT3 LG (89) serum level post treatment (median) (CYCLE 1 DAY 8): 71.1 pg/mL
G-CSF serum level post treatment (median) (CYCLE 1 DAY 8): 67.1 pg/mL
HGF (86) serum level post treatment (median) (CYCLE 1 DAY 8): 1339.3 pg/mL
IL-6 serum level post treatment (median) (CYCLE 1 DAY 8): 17.3 pg/mL
IL-7 serum level post treatment (median) (CYCLE 1 DAY 8): 6.4 pg/mL
IL-8 serum level post treatment (median) (CYCLE 1 DAY 8): 31.7 pg/mL
IL-17 serum level post treatment (median) (CYCLE 1 DAY 8): 14.4 pg/mL
IP-10 serum level post treatment (median) (CYCLE 1 DAY 8): 474.3 pg/mL
PGF (91) serum level post treatment (median) (CYCLE 1 DAY 8): 35.9 pg/mL
SDF-1a concentration (Median), PR group (CYCLE 1 DAY 8): 3294 pg/mL
SDF-1a concentration (Median), others (SD or PD) (CYCLE 1 DAY 8): 2915 pg/mL
SDF-1a serum level post treatment (median) (CYCLE 1 DAY 8): 3129.0 pg/mL
TGFa serum level post treatment (median) (CYCLE 1 DAY 8): 14.6 pg/mL
Tie-2 serum level post treatment (median) (CYCLE 1 DAY 8): 31685 pg/mL
VEGF serum level post treatment (median) (CYCLE 1 DAY 8): 741.4 pg/mL
VEGFA (100) serum level post treatment (median) (CYCLE 1 DAY 8): 202.1 pg/mL
sVEGFR1 serum level post treatment (median) (CYCLE 1 DAY 8): 300 pg/mL
sVEGFR2 serum level post treatment (median) (CYCLE 1 DAY 8): 18823.1 pg/mL
FGF-2 ratio (Median), PR group (CYCLE 1 DAY 8/CYCLE 1 DAY 1): 1.189
FGF-2 ratio (Median), others (SD or PD) (CYCLE 1 DAY 8/CYCLE 1 DAY 1): 0.952
GM-CSF ratio (Median), PR group (CYCLE 1 DAY 8/CYCLE 1 DAY 1): 1.037
GM-CSF ratio (Median), others (SD or PD) (CYCLE 1 DAY 8/CYCLE 1 DAY 1): 0.945
ANG2 (90) fold change (median) (CYCLE 1 DAY 8 vs CYCLE 1 DAY 1): 0.671
Ang-2 fold change (median) (CYCLE 1 DAY 8 vs CYCLE 1 DAY 1): 0.665
Eotaxin fold change (median) (CYCLE 1 DAY 8 vs CYCLE 1 DAY 1): 1.171
FLT3 LG (89) fold change (median) (CYCLE 1 DAY 8 vs CYCLE 1 DAY 1): 0.885
G-CSF fold change (median) (CYCLE 1 DAY 8 vs CYCLE 1 DAY 1): 1.25
HGF (86) fold change (median) (CYCLE 1 DAY 8 vs CYCLE 1 DAY 1): 1.096
IL-6 fold change (median) (CYCLE 1 DAY 8 vs CYCLE 1 DAY 1): 1.824
IL-7 fold change (median) (CYCLE 1 DAY 8 vs CYCLE 1 DAY 1): 1
IL-8 fold change (median) (CYCLE 1 DAY 8 vs CYCLE 1 DAY 1): 1.164
IL-17 fold change (median) (CYCLE 1 DAY 8 vs CYCLE 1 DAY 1): 1.025
IP-10 fold change (median) (CYCLE 1 DAY 8 vs CYCLE 1 DAY 1): 1.249
PGF (91) fold change (median) (CYCLE 1 DAY 8 vs CYCLE 1 DAY 1): 2.306
SDF-1a fold change (median) (CYCLE 1 DAY 8 vs CYCLE 1 DAY 1): 1.21
TGFa fold change (median) (CYCLE 1 DAY 8 vs CYCLE 1 DAY 1): 1.157
Tie-2 fold change (median) (CYCLE 1 DAY 8 vs CYCLE 1 DAY 1): 0.917
VEGF fold change (median) (CYCLE 1 DAY 8 vs CYCLE 1 DAY 1): 1.29
VEGFA (100) fold change (median) (CYCLE 1 DAY 8 vs CYCLE 1 DAY 1): 1.28
sVEGFR1 fold change (median) (CYCLE 1 DAY 8 vs CYCLE 1 DAY 1): 0.92
sVEGFR2 fold change (median) (CYCLE 1 DAY 8 vs CYCLE 1 DAY 1): 0.676
FGF2 (79) ratio (Median), PR group (CYCLE 2 DAY 2/CYCLE 1 DAY 8): 1.132
FGF2 (79) ratio (Median), others (SD or PD) (CYCLE 2 DAY 2/CYCLE 1 DAY 8): 0.978
GM-CSF ratio (Median), PR group (CYCLE 2 DAY 2/CYCLE 1 DAY 8): 1.051
GM-CSF ratio (Median), others (SD or PD) (CYCLE 2 DAY 2/CYCLE 1 DAY 8): 0.876
HGF (86) ratio (Median), PR group (CYCLE 2 DAY 2/CYCLE 1 DAY 8): 0.789
HGF (86) ratio (Median), others (SD or PD) (CYCLE 2 DAY 2/CYCLE 1 DAY 8): 1.087
Tie-2 ratio (Median), PR group (CYCLE 2 DAY 2/CYCLE 1 DAY 8): 0.791
Tie-2 ratio (Median), others (SD or PD) (CYCLE 2 DAY 2/CYCLE 1 DAY 8): 0.852
VEGFA (100) ratio (Median), PR group (CYCLE 2 DAY 2/CYCLE 1 DAY 8): 0.899
VEGFA (100) ratio (Median), others (SD or PD) (CYCLE 2 DAY 2/CYCLE 1 DAY 8): 1.172
ANG2 (90) serum level post treatment (median) (CYCLE 2 DAY 8): 600.6 pg/mL
Ang-2 serum level post treatment (median) (CYCLE 2 DAY 8): 1533 pg/mL
EGF (80) serum level post treatment (median) (CYCLE 2 DAY 8): 875.8 pg/mL
EGF serum level post treatment (median) (CYCLE 2 DAY 8): 75.9 pg/mL
Eotaxin serum level post treatment (median) (CYCLE 2 DAY 8): 177 pg/mL
G-CSF serum level post treatment (median) (CYCLE 2 DAY 8): 61.3 pg/mL
IL-6 concentration (Median), PR group (CYCLE 2 DAY 8): 8.2 pg/mL
IL-6 concentration (Median), others (SD or PD) (CYCLE 2 DAY 8): 33.9 pg/mL
IL-6 serum level post treatment (median) (CYCLE 2 DAY 8): 15 pg/mL
IL-8 serum level post treatment (median) (CYCLE 2 DAY 8): 31.4 pg/mL
IP-10 serum level post treatment (median) (CYCLE 2 DAY 8): 602.8 pg/mL
MCP-1 serum level post treatment (median) (CYCLE 2 DAY 8): 618.0 pg/mL
PGF (91) serum level post treatment (median) (CYCLE 2 DAY 8): 46.0 pg/mL
SDF-1a serum level post treatment (median) (CYCLE 2 DAY 8): 3529.5 pg/mL
Tie-2 serum level post treatment (median) (CYCLE 2 DAY 8): 26220 pg/mL
VEGFA (100) serum level post treatment (median) (CYCLE 2 DAY 8): 212.5 pg/mL
sVEGFR1 serum level post treatment (median) (CYCLE 2 DAY 8): 341.5 pg/mL
sVEGFR2 serum level post treatment (median) (CYCLE 2 DAY 8): 13352.1 pg/mL
sVEGFR3 serum level post treatment (median) (CYCLE 2 DAY 8): 4030.9 pg/mL
Eotaxin ratio (Median), PR group (CYCLE 2 DAY 8/CYCLE 1 DAY 1): 1.541
Eotaxin ratio (Median), others (SD or PD) (CYCLE 2 DAY 8/CYCLE 1 DAY 1): 1.242
IP-10 ratio (Median), PR group (CYCLE 2 DAY 8/CYCLE 1 DAY 1): 1.547
IP-10 ratio (Median), others (SD or PD) (CYCLE 2 DAY 8/CYCLE 1 DAY 1): 1.151
ANG2 (90) fold change (median) (CYCLE 2 DAY 8 vs CYCLE 1 DAY 1): 0.586
Ang-2 fold change (median) (CYCLE 2 DAY 8 vs CYCLE 1 DAY 1): 0.618
EGF (80) fold change (median) (CYCLE 2 DAY 8 vs CYCLE 1 DAY 1): 1.17
EGF fold change (median) (CYCLE 2 DAY 8 vs CYCLE 1 DAY 1): 0.808
Eotaxin fold change (median) (CYCLE 2 DAY 8 vs CYCLE 1 DAY 1): 1.363
G-CSF fold change (median) (CYCLE 2 DAY 8 vs CYCLE 1 DAY 1): 1.215
IL-6 fold change (median) (CYCLE 2 DAY 8 vs CYCLE 1 DAY 1): 1.299
IL-8 fold change (median) (CYCLE 2 DAY 8 vs CYCLE 1 DAY 1): 1.205
IP-10 fold change (median) (CYCLE 2 DAY 8 vs CYCLE 1 DAY 1): 1.382
MCP-1 fold change (median) (CYCLE 2 DAY 8 vs CYCLE 1 DAY 1): 1.086
PGF (91) fold change (median) (CYCLE 2 DAY 8 vs CYCLE 1 DAY 1): 3.05
SDF-1a fold change (median) (CYCLE 2 DAY 8 vs CYCLE 1 DAY 1): 1.345
Tie-2 fold change (median) (CYCLE 2 DAY 8 vs CYCLE 1 DAY 1): 0.766
VEGFA (100) fold change (median) (CYCLE 2 DAY 8 vs CYCLE 1 DAY 1): 1.426
sVEGFR1 fold change (median) (CYCLE 2 DAY 8 vs CYCLE 1 DAY 1): 0.805
sVEGFR2 fold change (median) (CYCLE 2 DAY 8 vs CYCLE 1 DAY 1): 0.499
sVEGFR3 fold change (median) (CYCLE 2 DAY 8 vs CYCLE 1 DAY 1): 0.843
